Columns and labels:
Type in all cases: in vivo
[1] = system: Green Peach Aphid (Myzus persicae, MYZUPE); test: Bioassay on Green Peach Aphid (GPA), foliar spray on infested cabbage seedlings; details: 72 h, 200 ppm foliar spray, three days, Abbott corrected % control, read-out: GPA % Control (or Mortality) rating
Procedure: Example B: Bioassays on Green Peach Aphid (Myzus Persicae, MYZUPE) (“GPA”)
Certain molecules disclosed in this document were tested against GPA using procedures described in the following example. In the reporting of the results, the “GPA & YFM Rating Table” was used (See Table Section).
Cabbage seedlings grown in 3-inch pots, with 2-3 small (3-5 cm) true leaves, were used as test substrate. The seedlings were infested with 20-50 GPA (wingless adult and nymph stages) one day prior to chemical application. Four pots with individual seedlings were used for each treatment. Test molecules (2 mg) were dissolved in 2 mL of acetone/methanol (1:1) solvent, forming stock solutions of 1000 ppm test molecule. The stock solutions were diluted 5× with 0.025% Tween 20 in water to obtain the solution at 200 ppm test molecule. A hand-held aspirator-type sprayer was used for spraying a solution to both sides of […] leaves until runoff. Reference plants (solvent check) were sprayed with the diluent only containing 20% by volume of acetone/methanol (1:1) solvent. Treated plants were held in a holding room for three days at approximately 25° C. and ambient relative humidity (RH) prior to grading. Evaluation was conducted by counting the number of live aphids per plant under a microscope. Percent Control was measured by using Abbott's correction formula (W. S. Abbott, “A Method of Computing the Effectiveness of an Insecticide” J. Econ. Entomol. 18 (1925), pp. 265-267) as follows. Corrected % Control=100*(X−Y)/X • where • X=No. of live aphids on solvent check plants and • Y=No. of live aphids on treated plants

[2] = system: Yellow Fever Mosquito (Aedes aegypti, AEDSAE); details: about 1 day-old larvae, 3 days, room temperature, scored on mortality
Outline: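 Compounds from DMSO master plates (4000 ppm stock) diluted with 90:10 water:acetone, then about 1-day-old larvae in liver-powder water added. Held covered at room temperature for 3 days; each well scored for mortality.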

[3] = system: Beet Armyworm (Spodoptera exigua, LAPHEG); test: Bioassay on Beet Armyworm (BAW), 128-well diet tray assay; details: 168 h, 50 μg/cm^2 on artificial diet, second instar larvae, five to seven days, 25° C., read-out: BAW % Control (or Mortality) rating
Outline: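 Artificial diet was surface-treated with 50 μg/cm^2 of compound in 90:10 acetone-water and dried; one to five second-instar larvae were placed per well, eight wells per treatment. Held at 25 °C, 14:10 light-dark, for five to seven days, then percent mortality per well was averaged.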

[4] = system: Cabbage Looper (Trichoplusia ni, TRIPNI); test: Bioassay on Cabbage Looper (CL), 128-well diet tray assay; details: 168 h, 50 μg/cm^2 on artificial diet, second instar larvae, five to seven days, 25° C., read-out: CL % Control (or Mortality) rating
Outline: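 Diet-tray assay: 1–5 second-instar larvae per well on artificial diet surface-treated with 50 μg/cm^2 compound (90:10 acetone-water, dried), eight wells per compound. Held at 25° C., 14:10 light-dark for five to seven days; percent mortality per well averaged across the eight wells.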

| SMILES | mortality at 200 ppm [1] [%] | YFM % Control (or Mortality) rating [2] | mortality at 50 µg/cm2 [3] [%] | mortality at 50 µg/cm2 [4] [%] |
| --- | --- | --- | --- | --- |
| C[C@H](C[S+]([O-])CC(F)(F)F)NC(=O)c1ccc(/C(F)=C/C(c2cc(Cl)cc(Br)c2)C(F)(F)F)cc1C(F)(F)F (stereo partly drawn) [F68, 4-((Z)-3-(3-Bromo-5-chlorophenyl)-1,4,4,4-tetrafluorobut-1-en-1-yl)-N-((2R)-1-((2,2,2-trifluoroethyl)sulfinyl)propan-2-yl)-2-(trifluoromethyl)benzamide] | 0 to 80 | A (80-100) | 50 to 100 | 50 to 100 |
| C[C@H](CS(=O)(=O)CC(F)(F)F)NC(=O)c1ccc(/C(F)=C/C(c2cc(Br)cc(Br)c2)C(F)(F)F)cc1C(F)(F)F (stereo partly drawn) [F69, 4-((Z)-3-(3,5-Dibromophenyl)-1,4,4,4-tetrafluorobut-1-en-1-yl)-N—((R)-1-((2,2,2-trifluoroethyl)sulfonyl)propan-2-yl)-2-(trifluoromethyl)benzamide] | 0 to 80 | A (80-100) | 50 to 100 | 50 to 100 |
| C[C@H](CS(=O)(=O)CC(F)(F)F)NC(=O)c1ccc(/C(F)=C/C(c2cc(Cl)c(C(F)F)c(Cl)c2)C(F)(F)F)cc1C(F)(F)F (stereo partly drawn) [F104] | 0 | A (80-100) | 50 to 100 | 50 to 100 |
| C[C@H](C[S+]([O-])CCC#N)NC(=O)c1ccc(/C(F)=C/C(c2cc(Cl)c(Cl)c(Cl)c2)C(F)(F)F)cc1C(F)(F)F (stereo partly drawn) [F122, N-((2R)-1-((2-Cyanoethyl)sulfinyl)propan-2-yl)-4-((Z)-1,4,4,4-tetrafluoro-3-(3,4,5-trichlorophenyl)but-1-en-1-yl)-2-(trifluoromethyl)benzamide] | 0 to 80 | A (80-100) | 50 to 100 | 50 to 100 |
| C[C@H](CS(=O)(=O)CCC#N)NC(=O)c1ccc(/C(F)=C/C(c2cc(Cl)c(Cl)c(Cl)c2)C(F)(F)F)cc1C(F)(F)F (stereo partly drawn) [F123, N—((R)-1-((2-cyanoethyl)sulfonyl)propan-2-yl)-4-((Z)-1,4,4,4-tetrafluoro-3-(3,4,5-trichlorophenyl)but-1-en-1-yl)-2-(trifluoromethyl)benzamide] | 0 | A (80-100) | 50 to 100 | 50 to 100 |
| C[C@H](CS(=O)(=O)CC(F)(F)F)NC(=O)c1ccc(/C(F)=C/C(c2ccc(F)c(Cl)c2)C(F)(F)F)cc1C(F)(F)F (stereo partly drawn) [PF2, 4-((Z)-3-(3-Chloro-4-fluorophenyl)-1,4,4,4-tetrafluorobut-1-en-1-yl)-N—((R)-1-((2,2,2-trifluoroethyl)sulfonyl)propan-2-yl)-2-(trifluoromethyl)benzamide] | 0 to 80 | B (More than 0-Less than 80) | 50 to 100 | 50 to 100 |
